Experimental findings from patent publication US20250082624A1, “METHODS OF TREATING COGNITIVE IMPAIRMENT” (NeuroTherapia, Inc., priority 2023, published 2025) are described below.

Data set [1] relates to dogs. As to the kind of experiment: Dog toxicity (CNS safety issue raised by FDA). The note with it: 200 mg/kg/day. It counts as in vivo.
Data set [2] relates to volunteers and AD patients. Description: Orthostatic blood pressure and vertigo tests (timed get-up and go, Nystagmus test, Romberg test). In kind it is in vivo, human. The note with it: Phase 1b. As to the method: (§1) Assessments: Subjects were assessed for changes in vital signs, orthostatic blood pressure, Romberg test, nystagmus, timed get up and go, electrocardiograms, electroencephalograms (EEG), and laboratory studies. Subjective questionnaires of drug effects (ARCI-M) were administered. Cohort B returned and received a single repeat dose after a standard high-fat meal. The AD cohort also underwent cognitive testing (MMSE, ADAS-COG, MOCA) and had blood samples for biomarkers drawn.
An informational letter was filed with the FDA to inform them of this study. The study was designed as follows: • 3 healthy cohorts (cohorts A-C) followed by AD cohort (cohort D) treated at MTD • 6 treated, 2 placebos in each cohort • Doses: 10, 30, 90 mg/treatment—latter doses can be adjusted based on PK assessment • In unit, 7 days of treatment • Monitor vertigo with various tests: (1) timed get-up and go, (2) Nystagmus test, (3) Romberg test, and (4) changes in orthostatic blood pressure (Day 1, 3 and 8) • Use 24 hr EEG monitoring for CNS safety assessment • Assess plasma biomarkers of inflammation and AD pre- and post-treatment in AD cohort • Assess changes on cognition post-treatment using MMSE and ADAS-cog • Fed/fasted study to determine food effects on PK as a subset of the Phase 1b

Data set [3] has as its system AD cohort. As to the kind of experiment: Cognitive testing MOCA / MMSE in AD cohort. Details: MOCA / MOCA Mean (StdDev): scale not given here. In kind it is in vivo, human. Particulars: 90 mg QD 7 days.
Description: Methods: All study procedures were approved by the IRB, and informed consent was obtained. Three cohorts of volunteers 45-80 years of age with well-controlled comorbidities (NOAD) and one cohort of AD patients diagnosed with cognitive impairment consistent with prodromal AD per International Working Group criteria or mild AD per National Institute on Aging—Alzheimer's Association criteria (n=6 active, 2 placebo per cohort) were enrolled. Participants were admitted to the study site for the duration of the dosing and returned 7-12 days after the last dose for a safety visit. Participants received NTRX-07 (10, 30, or 90 mg) or a placebo in a double-blinded randomization orally once daily for seven days. Subjects were assessed for changes in vital signs, including maneuvers to induce lightheadedness, electrocardiograms, 24-hour electroencephalograms (EEG), and safety laboratory studies. The second cohort returned and received a single repeat dose after a standard high-fat meal. The AD cohort also underwent cognitive testing and had blood samples for biomarkers drawn. Subjects had PK sampling done after the first and final dose of the study drug. An independent safety review committee conducted a blinded safety review of adverse events and plasma levels between each cohort.
as §1
Exploratory endpoints include cognitive testing and potential plasma biomarkers of inflammation. The small group size (6 on treatment, 2 placebo) precludes statistical analysis, but the goals were to gain insights for future study design. Exploratory endpoints include: • MMSE, MOCA & ADAS-COG • IL-12p70, IL-10, IL-4, IL-5, INFg, IL-6, IL-8, IL-22, TNFa, IL-10, hCRP, Chitinase-3, TREM-2, IL-2, Neurogranin, Total Tau, AB42, AB40, NF-LIGHT, pTau-181

“And” between values parts separate entries of the source, which are not always exact repeats. Equal values may be shown once. “Also recorded” adds a separate entry of the source.

In the case of `CC1(Cc2ccccc2)COc2cc(C(=O)N3CCCCC3)ccc21` (stereo not drawn) [NTRX-07, 3-benzyl-3-methyl-2,3-dihydrobenzofuran-6-carboxylic acid-piperidine amide], the Seizures result in data set [1] was “Seizures in 1 or 2 dogs”. The “Orthostatic events observed during trial: Severity” value in data set [2] (individual subjects on NTRX-07 (Cohort B 30 mg, C and D 90 mg QD)) was “Mild”. Besides, the “Primary side effect observed” value in data set [2] (usually with early doses) is given as “mild transient orthostatic changes in blood pressure”. In addition, the “Orthostasis: Incidences” value in data set [2] (treated subjects) is listed as 16.7%. Further, in data set [2] (treated subjects), the “Orthostasis: Subjects who had an incident” value is on record as 16.7%. Also, in data set [3], the “Changes in cognitive scores (MMSE, MOCA)” value is reported as “No significant changes in cognitive scores; also recorded: No appreciable changes”. Further, the “MOCA Mean (StdDev)” value in data set [3] (Day 8) was found to be 19.7 ± 1.8; in data set [3] (Day −2 (baseline)), 20.5 ± 2.6; in data set [3] (EOS Day 14-19), 20.7 ± 3.5. In addition, the MOCA was 22 and 21 and 19 and 20 and 17 in data set [3] (Day 8, individual subjects); 22 and 21 and 24 and 18 and 17 in data set [3] (Day −2 (baseline), individual subjects); 25 and 15 and 20 and 23 and 22 and 19 in data set [3] (EOS Visit (Day 14-19), individual subjects).
